Measurements taken from patent US9409905B2, “Antibacterial compounds and methods for use” (PTC THERAPEUTICS, INC., priority 2011, dated 2016).
≈ marks a conversion by molar mass, not a printed value.

Legend:
[1] = system: Escherichia coli (E. coli) BAS849; assay: Antibacterial activity, microbroth dilution MIC (Table 1); type: cell-based; conditions: microbroth dilution, super sensitive Gram-negative E. coli BAS849, read-out: MIC, BAS849
How it was run: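 Each strain is exposed to test compound in a microbroth dilution series; visible growth is scored macroscopically, and the lowest growth-free concentration is recorded as MIC in μg/mL.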

[2] = system: Staphylococcus aureus (S. aureus) 29213; assay: as above; type: cell-based; conditions: microbroth dilution, Gram-positive S. aureus 29213, read-out: MIC, 29213
How it was run: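 Values are MICs (μg/mL): the smallest drug amount at which macroscopically visible bacterial growth is absent under assay conditions, from a microdilution method in broth.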

E. coli 25922 = assay: as above; type: cell-based, Escherichia coli; conditions: Escherichia coli; microbroth dilution; control Gram-negative E. coli 25922 strain; read-out: MIC, 25922
How it was run: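 Broth microdilution; endpoint = no macroscopic growth; value = lowest inhibiting concn, μg/mL.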

E. coli LZ3111 = assay: Antibacterial activity, MIC, quinolone resistant strain (Table 2); type: cell-based; conditions: Escherichia coli, LZ3111, read-out: MIC LZ3111
How it was run: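 Microbroth dilution method; MIC (μg/mL) is the lowest drug concentration preventing macroscopically visible growth under test conditions.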

| Structure (SMILES) | MIC [1] | MIC [2] | MIC (E. coli 25922) | MIC (E. coli LZ3111) |
| --- | --- | --- | --- | --- |
| CCc1c(-c2ccc3c(c2)cc(CN2C[C@@H]4[C@H](C2)[C@H]4N(Cc2ccccc2)Cc2ccccc2)n3C)[nH]c(=O)c(C(=O)O)c1O [Cpd 196, 6-(2-(((1R,5S,6s)-6-(dibenzylamino)-3-azabicyclo[3.1.0]hexan-3-yl)methyl)-1-methyl-1H-indol-5-yl)-5-ethyl-4-hydroxy-2-oxo-1,2-dihydropyridine-3-carboxylic acid] | 3.5 to 12.5 µg/mL (≈ 5.81 to 20.7 µM) | 12.5 to 150 µg/mL (≈ 20.7 to 249 µM) | 12.5 to 150 µg/mL (≈ 20.7 to 249 µM) | 12.5 to 150 µg/mL (≈ 20.7 to 249 µM) |
| CCc1c(-c2ccc3c(c2)cc(CN2C[C@@H]4[C@H](C2)[C@H]4N(C)C)n3C)[nH]c(=O)c(C(=O)O)c1O [Cpd 197, 6-(2-(((1R,5S,6s)-6-(dimethylamino)-3-azabicyclo[3.1.0]hexan-3-yl)methyl)-1-methyl-1H-indol-5-yl)-5-ethyl-4-hydroxy-2-oxo-1,2-dihydropyridine-3-carboxylic acid] | < 1 µg/mL | 3.5 to 12.5 µg/mL (≈ 7.77 to 27.7 µM) | 1 to 3.5 µg/mL (≈ 2.22 to 7.77 µM) | 12.5 to 150 µg/mL (≈ 27.7 to 333 µM) |
| CCc1c(-c2ccc3c(c2)cc(CN[C@H]2[C@@H]4CNC[C@@H]42)n3C)[nH]c(=O)c(C(=O)O)c1O [Cpd 198, 6-(2-(((1R,5S,6s)-3-azabicyclo[3.1.0]hexan-6-ylamino)methyl)-1-methyl-1H-indol-5-yl)-5-ethyl-4-hydroxy-2-oxo-1,2-dihydropyridine-3-carboxylic acid] | 1 to 3.5 µg/mL (≈ 2.37 to 8.28 µM) | 12.5 to 150 µg/mL (≈ 29.6 to 355 µM) | 12.5 to 150 µg/mL (≈ 29.6 to 355 µM) | 12.5 to 150 µg/mL (≈ 29.6 to 355 µM) |
| CCc1c(-c2ccc3c(c2)cc(CNCCNC)n3C)[nH]c(=O)c(C(=O)O)c1O [Cpd 204, 5-ethyl-4-hydroxy-6-(1-methyl-2-((2-(methylamino)ethylamino)methyl)-1H-indol-5-yl)-2-oxo-1,2-dihydropyridine-3-carboxylic acid] | 1 to 3.5 µg/mL (≈ 2.51 to 8.78 µM) | 12.5 to 150 µg/mL (≈ 31.4 to 376 µM) | 3.5 to 12.5 µg/mL (≈ 8.78 to 31.4 µM) | 12.5 to 150 µg/mL (≈ 31.4 to 376 µM) |
| CCc1c(-c2ccc3c(c2)cc(CNCCN)n3C)[nH]c(=O)c(C(=O)O)c1O [Cpd 205, 6-(2-((2-aminoethylamino)methyl)-1-methyl-1H-indol-5-yl)-5-ethyl-4-hydroxy-2-oxo-1,2-dihydropyridine-3-carboxylic acid] | 1 to 3.5 µg/mL (≈ 2.6 to 9.1 µM) | 12.5 to 150 µg/mL (≈ 32.5 to 390 µM) | 12.5 to 150 µg/mL (≈ 32.5 to 390 µM) | 12.5 to 150 µg/mL (≈ 32.5 to 390 µM) |
| CCc1c(-c2ccc3c(c2)cc(CN2CC(N(C)Cc4ccccc4)C2)n3C)[nH]c(=O)c(C(=O)O)c1O [Cpd 206, 6-(2-((3-(benzyl(methyl)amino)azetidin-1-yl)methyl)-1-methyl-1H-indol-5-yl)-5-ethyl-4-hydroxy-2-oxo-1,2-dihydropyridine-3-carboxylic acid] | < 1 µg/mL | 3.5 to 12.5 µg/mL (≈ 6.99 to 25 µM) | 3.5 to 12.5 µg/mL (≈ 6.99 to 25 µM) | 12.5 to 150 µg/mL (≈ 25 to 300 µM) |
| CCc1c(-c2ccc3c(c2)cc(CN2CC(N(C)CCN(C)C)C2)n3C)[nH]c(=O)c(C(=O)O)c1O [Cpd 207, 6-(2-((3-((2-(dimethylamino)ethyl)(methyl)amino)azetidin-1-yl)methyl)-1-methyl-1H-indol-5-yl)-5-ethyl-4-hydroxy-2-oxo-1,2-dihydropyridine-3-carboxylic acid] | 1 to 3.5 µg/mL (≈ 2.08 to 7.27 µM) | 12.5 to 150 µg/mL (≈ 26 to 311 µM) | 12.5 to 150 µg/mL (≈ 26 to 311 µM) | 12.5 to 150 µg/mL (≈ 26 to 311 µM) |
| CCc1c(-c2ccc3c(c2)cc(CN(C)C2CC2)n3C)[nH]c(=O)c(C(=O)O)c1O.Cl [Cpd 212, 6-(2-((cyclopropyl(methyl)amino)methyl)-1-methyl-1H-indol-5-yl)-5-ethyl-4-hydroxy-2-oxo-1,2-dihydropyridine-3-carboxylic acid hydrochloride] | < 1 µg/mL | 1 to 3.5 µg/mL | 1 to 3.5 µg/mL | 12.5 to 150 µg/mL |
| CCc1c(-c2ccc3c(c2)cc(CNc2ccccc2)n3C)[nH]c(=O)c(C(=O)O)c1O [Cpd 213, 5-ethyl-4-hydroxy-6-(1-methyl-2-((phenylamino)methyl)-1H-indol-5-yl)-2-oxo-1,2-dihydropyridine-3-carboxylic acid] | < 1 µg/mL | 1 to 3.5 µg/mL (≈ 2.4 to 8.38 µM) | 12.5 to 150 µg/mL (≈ 29.9 to 359 µM) | 12.5 to 150 µg/mL (≈ 29.9 to 359 µM) |
| CCc1c(-c2ccc3c(c2)cc(CN[C@H](C)c2ccccc2)n3C)[nH]c(=O)c(C(=O)O)c1O.Cl [Cpd 215, (R)-5-ethyl-4-hydroxy-6-(1-methyl-2-((1-phenylethylamino)methyl)-1H-indol-5-yl)-2-oxo-1,2-dihydropyridine-3-carboxylic acid hydrochloride] | < 1 µg/mL | 1 to 3.5 µg/mL | 1 to 3.5 µg/mL | 12.5 to 150 µg/mL |
| CCc1c(-c2ccc3c(c2)cc(CN[C@@H](C)c2ccccc2)n3C)[nH]c(=O)c(C(=O)O)c1O.Cl [Cpd 216, (S)-5-ethyl-4-hydroxy-6-(1-methyl-2-((1-phenylethylamino)methyl)-1H-indol-5-yl)-2-oxo-1,2-dihydropyridine-3-carboxylic acid hydrochloride] | < 1 µg/mL | 1 to 3.5 µg/mL | 1 to 3.5 µg/mL | 12.5 to 150 µg/mL |
| CCc1c(-c2ccc3c(c2)cc(CNC(C)(C)c2ccccc2)n3C)[nH]c(=O)c(C(=O)O)c1O.Cl [Cpd 217, 5-ethyl-4-hydroxy-6-(1-methyl-2-((2-phenylpropan-2-ylamino)methyl)-1H-indol-5-yl)-2-oxo-1,2-dihydropyridine-3-carboxylic acid hydrochloride] | < 1 µg/mL | 1 to 3.5 µg/mL | 1 to 3.5 µg/mL | 12.5 to 150 µg/mL |
